Data as given in publication PMC11642016 (International Journal of Molecular Sciences, 2024).

What was measured:
[1] = system: Fadu cells; test: CellTiter-Glo luminescent cell viability assay, Fadu; settings: 72 h, mean ± SD, n = 2; for Cell Viability (% of Control) 2.8 µM / Cell Viability (% of Control) 8.3 µM / Cell Viability (% of Control) 25 µM: Fadu
[2] = system: PANC-1 cells; test: CellTiter-Glo luminescent cell viability assay, PANC-1; settings: 72 h, mean ± SD, n = 2; for Cell Viability (% of Control) 2.8 µM / Cell Viability (% of Control) 8.3 µM / Cell Viability (% of Control) 25 µM: PANC-1
[3] = system: PANC-1 and Fadu cells; test: CellTiter-Glo viability, statements covering both cancer cell lines; assay type: cell-based, human
Procedure: The effects of the synthesized compounds on cell viability were measured using the CellTiter-Glo® luminescent cell viability assay (Promega, Madison, WI, USA), according to the manufacturer’s instructions. […] After seeding, cells were incubated for a further 48 h before treatment. Cells were treated with the compounds for 72 h. […] After treatment, the luminescence signal was recorded using a microplate reader (BioTek Synergy 2 Multi-Mode Reader, BioTek, Winooski, VT, USA).

SMILES	Cell Viability (% of Control) 2.8 µM ([1]; 2.8 µM, first-set screening)	Cell Viability (% of Control) 2.8 µM ([1]; 2.8 µM, second-set screening)	Cell Viability (% of Control) 8.3 µM ([1]; 8.3 µM, first-set screening)	Cell Viability (% of Control) 8.3 µM ([1]; 8.3 µM, second-set screening)	Cell Viability (% of Control) 25 µM ([1]; 25 µM, first-set screening)	Cell Viability (% of Control) 25 µM ([1]; 25 µM, second-set screening)	Cell Viability (% of Control) 2.8 µM ([2]; 2.8 µM, first-set screening)	Cell Viability (% of Control) 2.8 µM ([2]; 2.8 µM, second-set screening)	Cell Viability (% of Control) 8.3 µM ([2]; 8.3 µM, first-set screening)	Cell Viability (% of Control) 8.3 µM ([2]; 8.3 µM, second-set screening)	Cell Viability (% of Control) 25 µM ([2]; 25 µM, first-set screening)	Cell Viability (% of Control) 25 µM ([2]; 25 µM, second-set screening)	eradication of cancer cells at 8.3 µM ([3]; 8.3 µM, both PANC-1 and Fadu, first-set screening)	viability at 2.8 µM ([1]; Homo sapiens, FaDu, read-out: Cell Viability (% of Control) 2.8 µM, Fadu, 2.8 µM, first-set screening)	viability at 8.3 µM ([1]; Homo sapiens, FaDu, read-out: Cell Viability (% of Control) 8.3 µM, Fadu, 8.3 µM, first-set screening)	viability at 25 µM ([1]; Homo sapiens, FaDu, read-out: Cell Viability (% of Control) 25 µM, Fadu, 25 µM, first-set screening)	viability at 2.8 µM ([2]; Homo sapiens, PANC-1, 72 h, read-out: Cell Viability (% of Control) 2.8 µM, PANC-1, 2.8 µM, first-set screening)	viability at 8.3 µM ([2]; Homo sapiens, PANC-1, 72 h, read-out: Cell Viability (% of Control) 8.3 µM, PANC-1, 8.3 µM, first-set screening)	viability at 25 µM ([2]; Homo sapiens, PANC-1, 72 h, read-out: Cell Viability (% of Control) 25 µM, PANC-1, 25 µM, first-set screening)	viability at 25 µM ([3]; Homo sapiens, 25 µM, in either of the cancer cell lines, read-out: drop in viability at 25 µM)
NCC#Cc1cccc(CN2C(=O)C3=C(CCN(Cc4ccc(-n5cc(-[c-]6cccc6)nn5)cc4)C3)N3CCN=C23)c1.[Fe+2].c1cc[cH-]c1 [2a]	107 ± 5 % of Control	114 ± 8 % of Control	3 ± 0 % of Control	56 ± 9 % of Control	0 ± 0 % of Control	0 ± 0 % of Control	92 ± 2 % of Control	117 ± 4 % of Control	0 ± 0 % of Control	92 ± 14 % of Control	0 ± 0 % of Control	0 ± 0 % of Control	practically complete eradication of both types of cancer cells	–	–	–	–	–	–	–
NCC#Cc1ccc(CN2C(=O)C3=C(CCN(Cc4cccc(-n5cc(-c6ccccc6)nn5)c4)C3)N3CCN=C23)cc1 [3b]	–	–	–	–	–	–	–	–	–	–	–	–	–	103 ± 2%	95 ± 3%	22 ± 4%	103 ± 8%	84 ± 2%	0%	0 to 1%
